Results taken from ChEMBL document CHEMBL3872227, “Discovery of novel xanthine compounds targeting DPP-IV and GPR119 as anti-diabetic agents” (Eur J Med Chem, 2016).

What was measured:
[1] = target: Dipeptidyl peptidase 8/9 (Homo sapiens) (UniProt Q6V1X1+Q86TI2); assay: Inhibition of full length recombinant human DPP-8/9 expressed in HEK293 cells at 10 uM incubated for 1 hr; format: cell-based
[2] = target: T1, Glucose-dependent insulinotropic receptor (Homo sapiens) (UniProt Q8TDV5); assay: Agonist activity at CREB-LBD and GAL4-DBD fused human GPR119 expressed in HEK293 cells at 1 uM by luciferase reporter gene assay relative to AR231453; format: functional, cell-based
T1 sequence (whole entry): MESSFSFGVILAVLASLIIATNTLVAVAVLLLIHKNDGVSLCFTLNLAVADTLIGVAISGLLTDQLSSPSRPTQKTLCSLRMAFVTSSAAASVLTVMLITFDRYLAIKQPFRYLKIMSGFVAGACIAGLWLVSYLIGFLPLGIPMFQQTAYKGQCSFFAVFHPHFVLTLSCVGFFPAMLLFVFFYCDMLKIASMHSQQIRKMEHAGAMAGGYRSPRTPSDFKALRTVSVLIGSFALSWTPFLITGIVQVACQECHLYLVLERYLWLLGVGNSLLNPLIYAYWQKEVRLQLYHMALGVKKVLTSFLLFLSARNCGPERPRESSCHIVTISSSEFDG

[3] = Metabolic stability in mouse liver microsomes at 1 umol/L after 30 mins by LC/MS/MS method; format: ADME; details: 0.5 h, 1 µM
[4] = target: T2, Glucose-dependent insulinotropic receptor (Homo sapiens, UniProt Q8TDV5); assay: Agonist activity at CREB-LBD and GAL4-DBD fused human GPR119 expressed in HEK293 cells by luciferase reporter gene assay; format: functional, cell-based
T2 sequence (Q8TDV5 whole entry): T1 sequence (whole entry)

Sequence of Dipeptidyl peptidase 8/9 (Homo sapiens) (Q6V1X1 whole entry, looked up, the tested form may be a part): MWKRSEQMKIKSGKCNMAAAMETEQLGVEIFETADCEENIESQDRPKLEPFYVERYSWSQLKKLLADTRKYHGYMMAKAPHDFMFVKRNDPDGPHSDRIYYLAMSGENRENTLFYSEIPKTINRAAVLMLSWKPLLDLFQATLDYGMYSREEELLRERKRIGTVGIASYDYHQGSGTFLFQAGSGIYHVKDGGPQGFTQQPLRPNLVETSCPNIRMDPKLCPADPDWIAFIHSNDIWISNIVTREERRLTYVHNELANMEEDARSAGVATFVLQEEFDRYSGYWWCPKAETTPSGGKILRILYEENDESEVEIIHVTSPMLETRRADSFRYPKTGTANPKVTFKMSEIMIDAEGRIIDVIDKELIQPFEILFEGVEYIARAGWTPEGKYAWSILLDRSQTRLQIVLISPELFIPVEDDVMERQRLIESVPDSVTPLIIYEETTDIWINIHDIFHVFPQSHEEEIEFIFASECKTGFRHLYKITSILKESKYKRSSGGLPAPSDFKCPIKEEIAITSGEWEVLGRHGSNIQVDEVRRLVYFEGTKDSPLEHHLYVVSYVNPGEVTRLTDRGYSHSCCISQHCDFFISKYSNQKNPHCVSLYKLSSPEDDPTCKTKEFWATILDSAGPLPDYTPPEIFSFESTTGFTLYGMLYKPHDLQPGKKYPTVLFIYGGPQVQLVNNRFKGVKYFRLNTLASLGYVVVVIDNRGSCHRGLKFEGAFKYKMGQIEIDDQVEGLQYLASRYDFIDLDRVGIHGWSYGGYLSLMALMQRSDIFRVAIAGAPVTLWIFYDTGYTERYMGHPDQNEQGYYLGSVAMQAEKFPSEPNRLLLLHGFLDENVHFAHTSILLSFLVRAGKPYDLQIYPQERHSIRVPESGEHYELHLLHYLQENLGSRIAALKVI
Sequence of Dipeptidyl peptidase 8/9 (Homo sapiens) (Q86TI2 whole entry, looked up, the tested form may be a part): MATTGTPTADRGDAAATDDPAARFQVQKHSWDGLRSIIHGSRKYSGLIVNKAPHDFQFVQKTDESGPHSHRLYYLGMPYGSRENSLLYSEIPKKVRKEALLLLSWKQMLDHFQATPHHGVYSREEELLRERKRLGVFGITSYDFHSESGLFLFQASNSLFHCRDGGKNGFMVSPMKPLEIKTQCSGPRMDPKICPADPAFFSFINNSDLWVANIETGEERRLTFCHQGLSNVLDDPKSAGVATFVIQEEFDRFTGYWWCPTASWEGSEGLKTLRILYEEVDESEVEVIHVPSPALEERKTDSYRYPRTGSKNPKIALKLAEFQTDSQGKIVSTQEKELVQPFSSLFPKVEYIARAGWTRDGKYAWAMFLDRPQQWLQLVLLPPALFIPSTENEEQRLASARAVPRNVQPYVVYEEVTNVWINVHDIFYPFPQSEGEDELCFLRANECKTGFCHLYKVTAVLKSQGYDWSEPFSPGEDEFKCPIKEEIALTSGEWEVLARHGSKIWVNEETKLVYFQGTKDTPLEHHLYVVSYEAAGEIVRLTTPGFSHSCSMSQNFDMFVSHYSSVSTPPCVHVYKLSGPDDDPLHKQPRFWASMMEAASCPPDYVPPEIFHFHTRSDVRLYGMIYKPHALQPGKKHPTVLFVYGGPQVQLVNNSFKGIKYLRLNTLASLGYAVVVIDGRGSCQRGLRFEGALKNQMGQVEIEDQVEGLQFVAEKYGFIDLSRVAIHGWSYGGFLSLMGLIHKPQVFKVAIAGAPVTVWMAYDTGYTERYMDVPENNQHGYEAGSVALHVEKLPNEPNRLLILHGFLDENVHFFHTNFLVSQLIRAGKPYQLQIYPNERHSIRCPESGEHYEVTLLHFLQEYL

inhibition [1] [%]	Activity [2] [%]	Stability [3]	EC50 [4] [nM]	Structure (SMILES)
21.1	74.5			CC#CCn1c(N2CCC[C@@H](N)C2)nc2c1c(=O)n(CCCN1CCC(C(=O)OC)CC1)c(=O)n2C
	68.8			CC#CCn1c(N2CCC[C@@H](N)C2)nc2c1c(=O)n(CCCN1CCC(C(=O)Nc3ccc(C#N)cc3)CC1)c(=O)n2C
	18.9			CC#CCn1c(N2CCC[C@@H](N)C2)nc2c1c(=O)n(CCCN1CCC(C(=O)Nc3ccc(Cl)cc3)CC1)c(=O)n2C
	16.2			CC#CCn1c(N2CCC[C@@H](N)C2)nc2c1c(=O)n(CCCN1CCC(C(=O)Nc3ccc(F)cc3)CC1)c(=O)n2C
16	60.4			CC#CCn1c(N2CCC[C@@H](N)C2)nc2c1c(=O)n(CCCN1CCC(C(=O)OC(C)C)CC1)c(=O)n2C
12.5	51.4			CC#CCn1c(N2CCC[C@@H](N)C2)nc2c1c(=O)n(CCCN1CCC(C(=O)OCC)CC1)c(=O)n2C
	42.7			CC#CCn1c(N2CCC[C@@H](N)C2)nc2c1c(=O)n(CCCN1CCC(C(=O)OC3CCCC3)CC1)c(=O)n2C
			700	CC(C)c1noc(C2CCN(c3ncnc(Nc4ccc(S(C)(=O)=O)cc4F)c3[N+](=O)[O-])CC2)n1
	36.5			CC#CCn1c(N2CC(N)C2)nc2c1c(=O)n(CCCN1CCC(C(=O)OC(C)C)CC1)c(=O)n2C

Further lines, the molecule ahead of its results:

Structure (SMILES)	inhibition [1] [%]	Activity [2] [%]	Stability [3]	EC50 [4] [nM]
CC#CCn1c(N2CCC[C@@H](N)C2)nc2c1c(=O)n(CCCCN1CCC(C(=O)OC(C)C)CC1)c(=O)n2C		9.8		
CC#CCn1c(N2CCCNCC2)nc2c1c(=O)n(CCCN1CCC(C(=O)OC(C)C)CC1)c(=O)n2C	22.5	69.6		
CC#CCn1c(N2CCC[C@@H](N)C2)nc2c1c(=O)n(CCCN1CCC(C(=O)OC3CCC3)CC1)c(=O)n2C		54.8		
CC#CCn1c(N2CCC[C@@H](N)C2)nc2c1c(=O)n(CCCN1CCC(C(=O)OC3CCCCC3)CC1)c(=O)n2C		29.9		
CC#CCn1c(N2CCC[C@@H](N)C2)nc2c1c(=O)n(CCN1CCC(C(=O)OC(C)C)CC1)c(=O)n2C		54.2		
CC#CCn1c(N2CCC[C@@H](N)C2)nc2c1c(=O)n(CCCN1CCC(C(=O)OCCC)CC1)c(=O)n2C		31.9		
CC#CCn1c(N2CCC[C@@H](N)C2)nc2c1c(=O)n(CCCN1CCC(C(=O)Nc3ccc(OC)cc3)CC1)c(=O)n2C		44.4		
CC#CCn1c(N2CCC[C@@H](N)C2)nc2c1c(=O)n(CCCN1CCC(C(=O)Nc3ccccc3)CC1)c(=O)n2C	36.8	81.5	Stable	950
CC#CCn1c(N2CCC[C@@H](N)C2)nc2c1c(=O)n(CCCN1CCC(C(=O)Nc3ccc(C)cc3)CC1)c(=O)n2C		26.2		
CC#CCn1c(N2CCC[C@@H](N)C2)nc2c1c(=O)n(CCCN1CCC(C(=O)Nc3ccc(Br)cc3)CC1)c(=O)n2C		27.9		
CC#CCn1c(N2CCC(N)CC2)nc2c1c(=O)n(CCCN1CCC(C(=O)OC(C)C)CC1)c(=O)n2C		14.5		
CC#CCn1c(N2CCC[C@@H](N)C2)nc2c1c(=O)n(CCCC1CCN(C(=O)OC(C)C)CC1)c(=O)n2C	36.8	66.1		
CC#CCn1c(N2CCC[C@@H](N)C2)nc2c1c(=O)n(CCC1CCN(C(=O)OC(C)C)CC1)c(=O)n2C	10.5	69.8		
CC#CCn1c(N2CCC[C@@H](N)C2)nc2c1c(=O)n(CC1CCN(C(=O)OC(C)C)CC1)c(=O)n2C	0	79.3		1900
CC#CCn1c(N2CCC[C@@H](N)C2)nc2c1c(=O)n(CCCN1CCC(C(=O)Oc3ccccc3)CC1)c(=O)n2C	26.3	70.7		
CC#CCn1c(N2CC[C@@H](N)C2)nc2c1c(=O)n(CCCN1CCC(C(=O)OC(C)C)CC1)c(=O)n2C		63.9		
CC#CCn1c(N2CCC[C@@H](N)C2)nc2c1c(=O)n(CCCN1CCC(C(=O)N(C)C)CC1)c(=O)n2C	38.1	61.3		
CC#CCn1c(N2CCC[C@@H](N)C2)nc2c1c(=O)n(CCCCC1CCN(C(=O)OC(C)C)CC1)c(=O)n2C	31.6	61.8		
